Data on two compounds can be found in EP1175467B1, “STABILIZED ADHESIVE COMPOSITIONS CONTAINING HIGHLY SOLUBLE, RED-SHIFTED, PHOTOSTABLE BENZOTRIAZOLE UV ABSORBERS AND LAMINATED ARTICLES DERIVED THEREFROM” (Ciba Specialty Chemicals Holding Inc., priority 1999, dated 2000).

Structures are written as SMILES.

The nature of this data set: Benzotriazole solubility in adhesive GELVA 263 (observed crystallization after solvent evaporation). The note with it: in GELVA 263 polyacrylate adhesive; approximate maximum concentration, weight of total benzotriazole added to GELVA 263 as is.

Protocol: To measure this solubility a number of structurally different benzotriazoles are added to a typical adhesive GELVA® 263 (Solutia) which is a 44.5% solution of a polyacrylate in a mixture of ethyl acetate and hexane. The polyacrylate is a copolymer of methyl methacrylate, 2-ethylhexyl methacrylate and glycidyl methacrylate.
The test benzotriazole is dissolved in 5 mL of ethyl acetate, toluene or a mixture of ethyl acetate and toluene. To the solution is added 5 g of GELVA® 263 and 2-3 mL of the resulting solution is placed into individual watch glasses. Solubility is then evaluated based upon observed crystallization once the solvent has evaporated. Observations start after several hours and then continue over a period of several weeks.
Solubilities are reported in weight of total benzotriazole added to GELVA® 263 as is.
Following the procedure of Example 3, the solubility in GELVA® 263 (Solutia) of various mixtures of benzotriazoles is determined. […]
The test compound is dissolved in 5 mL of ethyl acetate, toluene or a mixture of ethyl acetate and toluene. […] Solubility is then evaluated based upon observed crystallization once the solvent has evaporated. […]

For `COC(=O)C[S+]([O-])c1ccc2nn(-c3cc(C(C)(C)C)cc(C(C)(C)C)c3O)nc2c1` (centres unmarked) [J, 5-methoxycarbonylmethylsulfinyl-2-(2-hydroxy-3,5-di-tert-butylphenyl)-2H-benzotriazole], the “Solubility without Crystallization (%)” value is recorded as 8.0%.
With `COC(=O)CCc1cc(-n2nc3ccc(S(=O)(=O)c4ccccc4)cc3n2)c(O)c(C(C)(C)C)c1` [K, methyl 3-(5-phenylsulfonyl-2H-benzotriazol-2-yl)-5-tert-butyl-4-hydroxyhydrocinnamate], the “Solubility without Crystallization (%)” value is 11.3%.
